Results reported in patent publication US4758312A, “Method for in situ corrosion detection using electrochemically active compounds” (Nalco Chemical Company, priority 1987, dated 1988).

Tests used:
[1] = Commercial tetrazolium compounds, detection of iron corrosion (Example 4); details: 0.1 percent solution, one percent sodium chloride
[2] = Corrosion detection under typical cooling water conditions in recirculation tank (Example 7); details: continuous 4 ppm feed from day 4, Inhibitor A
[3] = Water solubility of reduced form (formazan); type: physicochemical; details: formazan of the synthesized tetrazolium compound
Text: Because the reduced forms of the commercially available tetrazolium salts tested in Example 4 are insoluble, they would present a measurement problem when used in an actual corrosion detection test. The reduced form (the formazan) would precipitate at the corrosion site and be difficult to detect quantitatively in the water sample taken far from the corrosion site. Introduction of a functional group to give water solubility to the reduced form was done to eliminate this problem. Examples of such functional groups are carboxy (COOH), hydroxy (OH), sulfonic (OSO3 H), amino (NH2), etc. These could be introduced on any of the three "R" groups in the generalized tetrazolium structure given below by choosing the appropriate organic compound to be used in the synthesis. [drawing 4]

| Water solubility of formazan formed [3] | Compound | Time to Color [1] [min] | Formazan level, stabilized [2] |
| --- | --- | --- | --- |
| – | c1ccc(-c2nn(-c3ccccc3)[n+](-c3ccc(-c4ccc(-[n+]5nc(-c6ccccc6)nn5-c5ccccc5)cc4)cc3)n2)cc1 [Compound 8 (Table 6), 2,2',5,5'-tetraphenyl-3,3'(p-diphenylene)ditetrazolium chloride] | 35 | – |
| water soluble | O=C(O)c1ccc(-n2nc(-c3ccccc3)n[n+]2-c2ccccc2)cc1 [tetrazolium compound, 2-(p-carboxyphenyl)-3,5-diphenyltetrazolium bromide] | – | 2-3 ppb |
